Source: patent US5462954A, “Substituted phenyl phenol leukotriene antagonists” (Eli Lilly and Company, priority 1994, dated 1995)
Counter-ions that a name gives are not always drawn.

These molecules were tested against binding of tritiated LTB4 to guinea pig lung membranes (Cavia porcellus, UniProt H0VYV8) (assay: biochemical). Conditions: inhibition of [3H]-LTB4 binding, guinea pig lung membranes; mean of n experiments; ~140 pM [3H]-LTB4, 45 minutes, 30° C., pH 6.5.
binding of tritiated LTB4 to guinea pig lung membranes, sequence (H0VYV8 1-348): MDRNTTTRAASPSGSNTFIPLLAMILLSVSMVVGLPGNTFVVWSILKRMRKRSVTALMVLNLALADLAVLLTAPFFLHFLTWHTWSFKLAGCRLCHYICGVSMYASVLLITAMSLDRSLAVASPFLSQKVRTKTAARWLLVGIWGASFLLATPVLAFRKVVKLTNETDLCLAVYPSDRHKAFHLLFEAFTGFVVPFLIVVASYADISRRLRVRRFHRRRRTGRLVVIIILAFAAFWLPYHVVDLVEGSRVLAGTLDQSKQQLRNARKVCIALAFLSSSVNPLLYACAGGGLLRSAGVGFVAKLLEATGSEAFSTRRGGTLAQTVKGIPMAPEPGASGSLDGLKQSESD
Protocol: The effectiveness of compounds of Formula I to inhibit the binding of tritiated LTB4 to guinea pig lung membranes was determined as follows.
The binding reaction was terminated by the addition of 1 mL ice cold wash buffer (25 mM Tris-HCl, pH 7.5) followed immediately by vacuum filtration over Whatman GF/C glass fiber filters using a Brandel (Gaithersburg, Md.) 48 place harvester. The filters were washed three times with 1 mL of wash buffer. Retained radioactivity was determined by liquid scintillation counting at 50% counting efficiency using Ready Protein Plus cocktail (Beckman, Fullerton, Calif.). Nondisplaceable binding was determined in the presence of 1 μM LTB4 and was usually less than 10% of total binding. […] The data reported below is the mean -log Ki, otherwise known as the pKi, for n experiments.
For `CCc1cc(-c2ccc(F)cc2)c(O)cc1OCCCOc1cccc(C(=O)c2ccccc2C(=O)O)c1` [Example 97, 2-[3-[3-[2-Ethyl-5-hydroxy-4-(4-fluorophenyl)phenoxy]propoxy]benzoyl]benzoic acid disodium salt hemihydrate], the “pKi (mean -log Ki)” value was 7.67.

Same assay, conditions: read-out: pKi (mean -log Ki) (converted)
In the case of `CCc1cc(-c2ccc(F)cc2)c(O)cc1OCCCOc1ccc(CCCCC(=O)O)c2c1CCC(=O)O2` [Example 33, 5-(3-(2-Ethyl-4-(4-fluorophenyl)-5-hydroxyphenoxy)propoxy)-8-(4-carboxybutyl)dihydrocoumarin], the Ki is reported as 0.257 nM. `CCCc1c(OCCCOc2cc(O)c(-c3ccc(F)cc3)cc2CC)cccc1Oc1ccccc1C(=O)O` [sodium salt] gave a Ki of 5.62 nM. In the case of `CCc1cc(-c2ccccc2)c(O)cc1OCCCOc1ccc2c(=O)c3cc(C(=O)O)ccc3oc2c1CCC(=O)O` [Example 60, 7-Carboxy-9-oxo-3-[3-(2-ethyl-5-hydroxy-4-phenylphenoxy)propoxy]-9H-xanthene-4-propanoic acid disodium salt monohydrate], the Ki is reported as 0.0646 nM. `CCc1cc(-c2ccc(F)cc2)c(O)cc1OCCCOc1ccccc1/C=C(\C)C(=O)O` [Example 88, 3-(2-(3-(2-Ethyl-4-(4-fluorophenyl)-5-hydroxyphenoxy)propoxy)phenyl)-2-methyl-E-propenoic acid] showed a Ki of 5.01 nM. In the case of `CCc1cc(-c2ccc(F)cc2)c(O)cc1OCCCCOc1ccccc1CCC(=O)O` [Example 23, 3-(2-(4-(2-Ethyl-4-(4-fluorophenyl)-5-hydroxyphenoxy)butyloxy)phenyl)propionic acid], the Ki is reported as 3.72 nM. In the case of `CCSc1cc(-c2ccc(F)cc2)c(O)cc1OCCCOc1ccccc1CCC(=O)O` [Example 31, 3-(2-(3-(2-Ethylthio-4-(4-fluorophenyl)-5-hydroxyphenoxy)propoxy)phenyl)propionic acid], the Ki is reported as 81.3 nM. Work on `CCc1cc(-c2ccc(F)cc2)c(O)cc1OCCCOc1ccccc1CC(C)(C)c1nnn[nH]1` [Example 28, 2-Methyl-2-(1H-tetrazol-5-yl)-3-(2-(3-(2-ethyl-4-(4-fluorophenyl)-5-hydroxyphenoxy)propoxy)phenyl)propane] yielded a Ki of 2.69 nM. With `CCc1cc(-c2ccc(F)cc2)c(O)cc1OCCCOc1ccccc1CCC(=O)NS(C)(=O)=O` [Example 19, N-Methanesulfonyl-3-(2-(3-(2-ethyl-4-(4-fluorophenyl)-5-hydroxyphenoxy)propoxy)phenyl)propionamide] the Ki was 1.51 nM. For `CCCc1c(OCCCOc2cc(O)c(-c3ccc(F)cc3)cc2CC)cccc1Oc1cc(F)ccc1C(=O)O` [Example 71, 4-Fluoro-2-[2-propyl-3-[3-[2-ethyl-5-hydroxy-4-(4-fluorophenyl)phenoxy]propoxy]phenoxy]benzoic acid], the Ki was 17 nM. For `CCc1cc(-c2ccc(F)cc2)c(O)cc1OCCCOc1ccc2c(c1CCC(=O)O)CC(CC(=O)O)C2=O` (stereo not drawn) [Example 52, 3-(4-(5-(4-(4-Fluorophenyl)-5-hydroxy-2-ethylphenoxy)propoxy)-2-carboxymethyl-2,3-dihydroinden-1(2H)-one)propanoic acid], the Ki was 0.263 nM. Molecule `CCc1cc(-c2ccc(F)cc2)c(O)cc1OCC/C=C/c1ccccc1CCC(=O)O` [9 (trans), 3-(2-(4-(2-Ethyl-4-(4-fluorophenyl)-5-hydroxyphenoxy)-(1-butenyl))phenyl)propionic acid] has a Ki of 3.89 nM. Molecule `CCc1cc(-c2ccc(F)cc2)c(O)cc1OCCCOc1ccc2c(=O)c3ccccc3oc2c1CCC(=O)O` [Example 68, 3-[4-[9-Oxo-3-[3-[2-ethyl-4-(4-fluorophenyl)-5-hydroxyphenoxy]propoxy]-9H-xanthene]]propanoic acid] has a Ki of 3.47 nM. For `CCCc1c(OCCCOc2cc(O)c(-c3ccc(F)cc3)cc2CC)cccc1Oc1ccccc1CC(=O)O` [Example 77, 2-[2-Propyl-3-[3-[2-ethyl-5-hydroxy-4-(4-fluorophenyl)phenoxy]propoxy]phenoxy]phenylacetic acid], the Ki was 8.13 nM. Molecule `CCCCc1c(OCCCOc2cc(O)c(-c3ccc(F)cc3)cc2CC)cccc1Oc1ccccc1C(=O)O` [Example 75, 2-[2-Butyl-3-[3-[2-ethyl-5-hydroxy-4-(4-fluorophenyl)phenoxy]propoxy]phenoxy]benzoic acid hydrate] has a Ki of 16.2 nM. In the case of `CCc1cc(-c2ccc(F)cc2)c(O)cc1OCCCCc1ccccc1CCC(=O)O` [Example 10, 3-(2-(4-(2-Ethyl-4-(4-fluorophenyl)-5-hydroxyphenoxy)butyl)phenyl)propionic acid], the Ki is reported as 8.91 nM. With `CCc1cc(-c2ccc(F)cc2)c(O)cc1OCCCOc1cccc(Oc2ccccc2C(=O)O)c1Cc1ccccc1` [Example 76, 2-[2-(Phenylmethyl)-3-[3-[2-ethyl-5-hydroxy-4-(4-fluorophenyl)phenoxy]propoxy]phenoxy]benzoic acid] the Ki was 53.7 nM. With `CCc1cc(-c2ccc(F)cc2)c(O)cc1OCCCOc1cccc(OCCCCc2nnn[nH]2)c1CCC(=O)O` [Example 7, 3-(2-(3-(2-Ethyl-4-(4-fluorophenyl)-5-hydroxyphenoxy)propoxy)-6-(4-(1H-tetrazol-5-yl)butyloxy)phenyl)propionic acid] the Ki was 1.35 nM. `CCCc1c(OCCCOc2cc(O)c(-c3ccccc3)cc2CC)cccc1Oc1cccc(F)c1C(=O)O` [Example 65, 2-Fluoro-6-[2-propyl-3-[3-(2-ethyl-5-hydroxy-4-phenylphenoxy)propoxy]phenoxy]benzoic acid disodium salt] gave a Ki of 12.3 nM. Work on `CCc1cc(-c2ccc(F)cc2)c(O)cc1OCCCOc1cc(OCCCCC(=O)O)ccc1CCC(=O)O` [Example 90, 3-(2-(3-(2-Ethyl-4-(4-fluorophenyl)-5-hydroxyphenoxy)propoxy)-4-(4-carboxybutyloxy)phenyl)propionic acid] yielded a Ki of 20.9 nM. `O=C(O)CCCCOc1cccc(OCCCOc2cc(O)c(-c3ccc(F)cc3)cc2-c2ccc(F)cc2)c1CCC(=O)O` [Example 16, 3-(2-(3-(2,4-Di(4-fluorophenyl)-5-hydroxyphenoxy)propoxy)-6-(4-carboxybutoxy)phenyl)propionic acid] gave a Ki of 17.4 nM. `CCc1cc(-c2ccc(F)cc2)c(O)cc1OCCCCCC(c1ccc(OCC(=O)O)cc1)c1nn[nH]n1` (stereo not drawn) [Example 85, 1-(4-(Carboxymethoxy)phenyl)-1-(1H-tetrazol-5-yl)-6-(2-ethyl-4-(4-fluorophenyl)-5-hydroxyphenoxy)hexane] showed a Ki of 0.245 nM. For `CCc1cc(-c2ccc(F)cc2)c(O)cc1OCCCOc1ccc2c(=O)c3cc(C(=O)O)ccc3oc2c1CCC(=O)O` [Example 67, 3-[4-[7-Carboxy-9-oxo-3-[3-[2-ethyl-4-(4-fluorophenyl)-5-hydroxyphenoxy]propoxy]-9H-xanthene]] propanoic acid disodium salt trihydrate], the Ki was 0.024 nM. In the case of `CCc1cc(-c2ccc(F)cc2)c(O)cc1OCCCOc1cc(Oc2ccc(C(=O)O)cc2)ccc1CCC(=O)O` [Example 26, 3-(2-(3-(2-Ethyl-4-(4-fluorophenyl)-5-hydroxyphenoxy)propoxy)-4-(4-carboxyphenoxy)phenyl)propionic acid], the Ki is reported as 13.8 nM. With `CCCc1c(OCCCOc2cc(O)c(-c3ccc(F)cc3)cc2CC)cccc1C(=O)c1ccccc1C(=O)O` [Example 78, 2-[2-Propyl-3-[3-[2-ethyl-5-hydroxy-4-(4-fluorophenyl)phenoxy]propoxy]benzoyl]benzoic acid] the Ki was 9.55 nM. `CCCc1cc(CCC(=O)O)ccc1OCCCOc1cc(O)c(-c2ccc(F)cc2)cc1CC` [Example 94, 3-(4-{3-[2-Ethyl-4-(4-fluorophenyl)-5-hydroxyphenyloxy]propoxy}-3-propylphenyl)propanoic acid] was tested, and the Ki was 20.9 nM. `CCCc1c(CCC(=O)O)cccc1OCCCOc1cc(O)c(-c2ccccc2)cc1CC` [Example 96, disodium salt] was tested, and the Ki was 25.1 nM. `CCCc1c(OCCCOc2cc(O)c(-c3ccc(F)cc3)cc2CC)cccc1Sc1ccccc1C(=O)O` [Example 80, 2-[2-Propyl-3-[3-[2-ethyl-4-(4-fluorophenyl)-5-hydroxyphenoxy]propoxy]thiophenoxy]benzoic acid] gave a Ki of 11.2 nM. `CCc1cc(-c2ccc(F)cc2)c(O)cc1OCCCOc1cccc(OCCCCC(=O)O)c1CCC(=O)O` [Example 5, 3-(2-(3-(2-Ethyl-4-(4-fluorophenyl)-5-hydroxyphenoxy)propoxy)-6-(4-carboxybutyloxy)phenyl)propionic acid] showed a Ki of 0.55 nM. `CCc1cc(-c2ccc(F)cc2)c(O)cc1OCCCOc1ccccc1CCC(=O)NS(=O)(=O)c1ccccc1` [Example 20, N-Phenylsulfonyl-3-(2-(3-(2-ethyl-4-(4-fluorophenyl)-5-hydroxyphenoxy)propoxy)phenyl)propionamide] showed a Ki of 2.29 nM. `CCCc1c(OCCCOc2cc(O)c(-c3ccccc3)cc2CC)cccc1Oc1ccccc1-c1nnn[nH]1` [Example 63, 5-Ethyl-4-[3-[2-propyl-3-[2-(2H-tetrazol-5-yl)phenoxy]phenoxy]propoxy][1,1'-biphenyl]-2-ol disodium salt sesquihydrate] showed a Ki of 11.5 nM. `CCc1cc(-c2ccc(F)cc2)c(O)cc1OCCCOc1ccccc1/C=C/C(=O)O` [Example 87, 3-(2-(3-(2-Ethyl-4-(4-fluorophenyl)-5-hydroxyphenoxy)propoxy)phenyl)-E-propenoic acid] was tested, and the Ki was 9.55 nM. In the case of `CCCc1ccc(CCC(=O)O)cc1OCCCOc1cc(O)c(-c2ccc(F)cc2)cc1CC` [sodium salt], the Ki is reported as 102 nM. `CCCCOc1cccc(OCCCOc2cc(O)c(-c3ccc(F)cc3)cc2CC)c1CCC(=O)O` [Example 14, 3-(2-(3-(2-Ethyl-4-(4-fluorophenyl)-5-hydroxyphenoxy)propoxy)-6-(4-butyloxy)phenyl)propionic acid] gave a Ki of 30.2 nM. For `CCc1cc(-c2ccc(F)cc2)c(O)cc1OCCCCc1cccc(OC)c1CCC(=O)O` [Example 11, 3-(2-(4-(2-Ethyl-4-(4-fluorophenyl)-5-hydroxyphenoxy)butyl)-6-methoxyphenyl)propionic acid], the Ki was 21.4 nM. `CCCc1c(OCCCOc2cc(O)c(-c3ccccc3)cc2CC)ccc2c1OC(C(=O)O)CC2` (stereo not drawn) [Example 54, 7-[3-[(5-Ethyl-2-hydroxy[1,1'-biphenyl]-4-yl)oxy]propoxy]-3,4-dihydro-8-propyl-2H-1-benzopyran-2-carboxylic acid] showed a Ki of 1.2 nM.
